Data as given in patent US4551547A, “Biocidal 2-aryl-1, 3-cyclopentanedione enol ester compounds” (Union Carbide Corporation, priority 1983, dated 1985).
Values after ≈ are worked out from the molar mass of the structure shown.

Experiments:
[1] = tested on: egg of the two-spotted mite; assay: Mite Ovicide Test (eggs); assay type: in vivo, Tetranychus urticae (Koch); set-up: key to Miticidal, Egg: A: Excellent Control; B: Partial Control; No Control; conditions: for Miticidal, Egg: Table II, unhatched eggs after four days; for LC50: Tetranychus urticae, Table III, ppm required for a 50 percent kill of eggs, read-out: Miticidal LD50, Egg
Description: Suspensions of the test compounds were prepared by dissolving one gram of compound in 50 milliliters of acetone in which had been dissolved 0.1 gram (10 percent of the weight of compound) of an alkylphenoxyethanol sufactant, as an emulsifying or dispersing agent. The resulting solution was mixed into 160 milliliters of water to give roughly 200 milliliters of a suspension containing the compound in finely divided form. The thus prepared stock suspension contained 0.5 percent by weight of compound. The test concentrations employed in the tests described below were obtained by diluting the stock suspension with water. The test procedures were as follows: The test organism was the egg of the two-spotted mite (Tetranychus urticae (Koch)), as obtained from adults reared on […] bean plants under controlled conditions of 80±5° F. and 50±5 percent relative humidity. Heavily infested leaves from a stock culture were placed on the primary leaves of two bean plants six to eight inches in height growing in a two-and-a-half inch clay pot. Females were allowed to oviposit for a period of 48 hours and the leaves of the infested plants were dipped in a solution containing 800 parts of tetraethyl pyrophosphate per million parts of water in order to destroy the reproductory forms and thus prevent further egg laying. […] The plants were allowed to dry thoroughly. The test compounds were formulated by diluting the stock suspension with water to give a suspension containing varying amounts of test compound per million parts of final formulation. The potted plants (one pot per compound) were placed on a revolving turntable and sprayed with 100-110 milliliters of test compound formulation by use of a DeVilbis spray gun set at 40 spig. air pressure. This application which lasted 30 seconds, was sufficient to wet the plants to run-off. As a control, 100-110 milliliters of a water solution containing acetone and emulsifier in the same concentrations as the test compound formulation, but containing no test compound, were also sprayed on plants infested with eggs. The sprayed plants were held at 80±5° F. and 50±5 percent relative humidity for four days, after which a microscopic examination was made of unhatched (dead) and hatched (living) eggs. In these tests the pesticidal activity of the compounds against mites and mite eggs was rated as follows: Tests were conducted in accordance with the procedures given at pages 17 to 21 supra. The results are expressed in the same manner as used in Table II, except with respect to miticidal activity. For mite adult and mite egg comparison purposes, results are given in parts per million (ppm) required for a 50 percent kill of mites or eggs, respectively.

Crabgrass = assay: Preliminary herbicide seed germination test (pre-emergent), crabgrass; assay type: in vivo, Digitaria sanguinalis; set-up: key: 5: no seedling emerged; 4: few seedlings emerged and/or very severe stunting; 3: moderate reduction in stand and/or moderate stunting.; 2: very slight reduction in stand and/or slight stunting; 1: no injury, seedlings appear no different with respect to stand or growth than untreated controls; conditions: ten to twelve days after application
Description: (§1) Suspensions of the test compounds were prepared by dissolving one gram of compound in 50 milliliters of acetone in which had been dissolved 0.1 gram (10 percent of the weight of compound) of an alkylphenoxyethanol sufactant, as an emulsifying or dispersing agent. The resulting solution was mixed into 160 milliliters of water to give roughly 200 milliliters of a suspension containing the compound in finely divided form. The thus prepared stock suspension contained 0.5 percent by weight of compound. The test concentrations employed in the tests described below were obtained by diluting the stock suspension with water. The test procedures were as follows:
(§2) The following seeds were used in this test:
Crabgrass--Digitaria sanguinalis
(§3) Two […] mixtures were prepared as follows:
(§4) Each of the above mixtures was rolled separately in 5 gallon containers for approximately one-half hour on ball mill to insure uniform mixing of seeds and soil. For each compound four 3-inch pots were filled with soil to within 11/2 inches of top of pots. To two of these pots were added 70 cc. of Mixture I. To the remaining 2 pots were added 70 cc. of Mixture II. The seed-soil mixture was tamped firmly, and the pots were removed to the greenhouse and watered lightly. About 2 hours after planting, 25 milliliters of the test formulation were added to one pot containing Mixture I and one pot containing Mixture II. An equal volume of a water solution containing acetone and an emulsifier in the same concentration as the herbicidal mixture but without the candidate herbicide was also added to each of the soil-seed mixtures. These pots are used as check or control units. The test compounds were formulated by diluting the stock suspension with water to obtain the desired concentration of the compound in parts per million of the final formulation. Each compound was tested at the same concentration. […] Ratings were made according to the following designations: […]

Corn = assay: Post-emergent herbicidal test, corn; assay type: in vivo; set-up: key: 1: no perceptible injury; 2: intermediate degrees of injury; 3: intermediate degrees of injury; 4: intermediate degrees of injury; 5: the plant was dead; conditions: 2500 parts per million, after ten days; for Post-emergent Herbicidal, Corn: Table II; for Post Emergent Herbicidal, Corn: Table III
Description: as §1
(§5) Experiments were also conducted to determine the phytotoxicity of representative compositions with respect to healthy fresh plants. Solutions of the compounds were prepared as described above to provide a concentration of 2500 parts per million of the test compound. The test plants were sprayed in accordance with the procedure described above for the Mite Foliage Spray Test so as to deliver approximately 100 milliliters of test solutions to the leaves of each plant tested. The sprayed plants and controls were set aside for approximately one hour to allow the solutions to dry and were then placed in the greenhouse. After ten days the plants were visually inspected to determine the extent of foliage injury. A rating of 1 indicates no perceptible injury; 5 indicates the plant was dead and ratings of 2, 3 and 4 indicate intermediate degrees of injury based upon the number and extent to which leaves were injured.

Perennial rye grass = assay: Preliminary herbicide seed germination test (pre-emergent), perennial rye grass; assay type: in vivo, Solium perenne; set-up: key: 5: no seedling emerged; 4: few seedlings emerged and/or very severe stunting; 3: moderate reduction in stand and/or moderate stunting.; 2: very slight reduction in stand and/or slight stunting; 1: no injury, seedlings appear no different with respect to stand or growth than untreated controls; conditions: ten to twelve days after application
Description: as §1, §2
Perennial rye grass--Solium perenne
as §3, §4

[2] = tested on: Red root pigweed (Amaranthus); assay: Preliminary herbicide seed germination test (pre-emergent), red root pigweed; assay type: in vivo, Amaranthus retroflexus; set-up: key: 5: no seedling emerged; 4: few seedlings emerged and/or very severe stunting; 3: moderate reduction in stand and/or moderate stunting.; 2: very slight reduction in stand and/or slight stunting; 1: no injury, seedlings appear no different with respect to stand or growth than untreated controls; conditions: ten to twelve days after application
Description: as §1, §2
Red root pigweed--Amaranthus retroflexus
as §3, §4

Mustard = assay: Preliminary herbicide seed germination test (pre-emergent), mustard; assay type: in vivo, Brassica pincea var. foliosa (Florida broadleaf); set-up: key: 5: no seedling emerged; 4: few seedlings emerged and/or very severe stunting; 3: moderate reduction in stand and/or moderate stunting.; 2: very slight reduction in stand and/or slight stunting; 1: no injury, seedlings appear no different with respect to stand or growth than untreated controls; conditions: ten to twelve days after application
Description: as §1, §2
Mustard--Brassica pincea var. foliosa (Florida broadleaf)
as §3, §4

Cotton = assay: Post-emergent herbicidal test, cotton; assay type: in vivo; set-up: key: 1: no perceptible injury; 2: intermediate degrees of injury; 3: intermediate degrees of injury; 4: intermediate degrees of injury; 5: the plant was dead; conditions: 2500 parts per million, after ten days; for Post-emergent Herbicidal, Cotton: Table II; for Post Emergent Herbicidal, Cotton: Table III
Description: as §1, §5

Tomato = assay: Post-emergent herbicidal test, tomato; assay type: in vivo; set-up: key: 1: no perceptible injury; 2: intermediate degrees of injury; 3: intermediate degrees of injury; 4: intermediate degrees of injury; 5: the plant was dead; conditions: 2500 parts per million, after ten days; for Post-emergent Herbicidal, Tomato: Table II; for Post Emergent Herbicidal, Tomato: Table III
Description: as §1, §5

Row | Structure (SMILES) | Miticidal, Egg [1] | Pre-emergent Herbicidal, Crabgrass (Crabgrass; Table II) | Post-emergent Herbicidal, Corn (Corn) | Pre-emergent Herbicidal, Rye (Perennial rye grass; Table II) | Pre-emergent Herbicidal, Amaranthus ([2]; Table II) | Pre-emergent Herbicidal, Mustard (Mustard; Table II) | Post-emergent Herbicidal, Cotton (Cotton) | Post-emergent Herbicidal, Tomato (Tomato) | LC50 [1] [µg/mL] | Pre-emergent Herbicidal, Crabgrass (Crabgrass; Table III) | Post Emergent Herbicidal, Corn (Corn) | Pre-emergent Herbicidal, Rye (Perennial rye grass; Table III) | Pre-emergent Herbicidal, Amaranthus ([2]; Table III) | Pre-emergent Herbicidal, Mustard (Mustard; Table III) | Post Emergent Herbicidal, Cotton (Cotton) | Post Emergent Herbicidal, Tomato (Tomato)
1 | Cc1ccc(C)c(C2=C(OC(=O)C(C)C)C3CCCCC3C2=O)c1 (centres unmarked) [Compound 29] | A | 1 | 2 | 1 | 1 | 1 | 2 | 1 |  |  |  |  |  |  |  | 
2 | CC(=O)OC1=C(c2cc(C)ccc2C)C(=O)CC1 [Compound 11] | C | 1 | 2 | 4 | 3 | 3 | 2 | 3 |  |  |  |  |  |  |  | 
3 | CCCCCCCCCCCCCCCC(=O)OC1=C(c2ccccc2C)C(=O)C2CCCCC12 (centres unmarked) [drawing 17] |  |  |  |  |  |  |  |  | 500 (≈ 1040 µM) | 3 | 2 | 4 | 2 | 3 | 2 | 1
4 | CCCCCCCCCC(=O)OC1=C(c2cc(C)ccc2C)C(=O)C2CCCCC12 (centres unmarked) [drawing 19] |  |  |  |  |  |  |  |  | 8 (≈ 19.5 µM) | 1 | 2 | 1 | 1 | 1 | 1 | 1
5 | CCCCCCCCCCCCCCCC(=O)OC1=C(c2cc(C)ccc2C)C(=O)C(C)C1 (centres unmarked) [Compound 18] | A | 1 | 3 | 4 | 1 | 1 | 2 | 2 |  |  |  |  |  |  |  | 
6 | CCCCCCCCCCCCCCCC(=O)OC1=C(c2ccccc2C)C(=O)c2ccccc21 [reference compound] |  |  |  |  |  |  |  |  | 60 (≈ 126 µM) | 1 | 1 | 1 | 1 | 1 | 1 | 1
7 | CCCCCCCCCC(=O)OC1=C(c2ccccc2C)C(=O)C2CCCCC12 (centres unmarked) [drawing 15] |  |  |  |  |  |  |  |  | 1 (≈ 2.52 µM) | 3 | 5 | 5 | 3 | 3 | 3 | 1
8 | CCCCC(CC)C(=O)OC1=C(c2ccc(C)cc2C)C(=O)C2CCCCC12 (centres unmarked) [Compound 26, 3-(2-ethylhexanoyloxy)-2-(2',4'-dimethylphenyl)-4,5,6,7,8,9-hexahydro-2-indenone] | A | 1 | 5 | 5 | 1 | 1 | 2 | 2 |  |  |  |  |  |  |  | 
9 | CC(=O)OC1=C(c2ccccc2C)C(=O)C2CCCCC12 (centres unmarked) [Compound 19, 3-acetoxy-2-(2'-methylphenyl)-4,5,6,7,8,9-hexahydro-2-indenone] | A | 3 | 5 | 3 | 4 | 3 | 2 | 2 |  |  |  |  |  |  |  | 
10 | CCCCCCCCCCCCCCCC(=O)OC1=C(c2ccccc2C)C(=O)C2CCCCC12 (centres unmarked) [Compound 24] | A | 3 | 2 | 4 | 2 | 3 | 2 | 1 |  |  |  |  |  |  |  | 
